Entries after “also recorded” stand apart in the source; their conditions may differ. Where two headings read alike, the source gives them in different places.
Assays:
Format in all cases: cell-based, human
HepG2 cells = test: measurement of glucose production in cell culture; design: glucose production: dose or concentration left out as unconfirmed
Protocol: Rosiglitazone and GW9662 were from Sigma. HepG2 and Huh7 cells were seeded in 6-well tissue culture plates at 5×10, Quasdorff, M. et al. Journal of viral hepatitis 17, 527-536 (2010) cells/well. At 24 h post-transfection, Rosiglitazone or GW9662 in 0.1% DMSO was added to medium. Culture medium was changed ever two days before harvest.
The glucose level of HBV transgenic mice was measured using a kit of DRI-CHEM SLIDE GLU-PIII (FUJIFILM, JAPAN). Ten microliters of mouse serum was deposited on a FUJI DRI-CHEM SLIDE GLU-PIII. Glucose oxidase (GOD) catalyzes the oxidization of sample glucose to generate hydrogen peroxide which then reacts with dye precursors and forms red dye. The optical reflection density was measured at 505 nm by the FUJI DRI-CHEM analyzer and converted into the glucose concentration […]. For the measurement of glucose concentration in cell culture, HBV producing cells (HepG2 and Q7 cells) were treated with PPARγ antagonist, GW9662 at indicated concentrations. Twenty-four hours before glucose measurement, the medium was replaced with 1 ml of glucose-free DMEM, supplemented with 2 mM sodium pyruvate. After 16 hrs incubation, 50 μl of medium was collected and the glucose concentration (mM) was measured using the glucose colorimetric assay (Biovision).

miR-130a = miR-130a expression in PPARγ-expressing HepG2 cell lines (stem-loop qPCR); settings: stable PPARγ-expressing HepG2 cell lines, U6 snRNA internal control
Protocol: Rosiglitazone and GW9662 were from Sigma. […] At 24 h post-transfection, Rosiglitazone or GW9662 in 0.1% DMSO was added to medium. Culture medium was changed ever two days before harvest.
Briefly, 100 ng RNAs were reverse transcribed by specific stem-loop primer and further analyzed by Taqman real-time PCR assay using default setting. […] Data were analyzed by Applied Biosystems 7500 software V2.0.1.

adiponectin [1] = test: adiponectin protein in stable miR-130a expressing cells (Western blot)
Text: (§1) Anti-HBc (Dako), anti-PPARγ (Santa Cruz), anti-GAPDH, anti-PKLR, anti-G6Pase, anti-tubulin, anti-adiponectin (GeneTex, Taiwan), anti-PGC1α (Origene), anti-PCK1 (Abnova), anti-GCK (Biovision), Secondary antibodies include mouse anti-rabbit-HRP, goat anti-mouse-HRP (GeneTex, Taiwan) and donkey anti-goat-HRP (Santa Cruz).
(§2) Native agarose gel electrophoresis and Western blot for detecting HBV core particles were as described. Chua, P. K., et al. Journal of virology 84, 2340-2351 (2010),
(§3) Approximately one million Huh7 and HepG2 cells were transiently transfected by 3 μg plasmid DNA (pSuper and pSuper-miR-130a) with Polyjet (SignaGen), followed by G418 selection for three weeks. The G418-resistant colonies were pooled together.

CEBPb = CEBPb protein in stable miR-130a expressing HepG2 cell lines (Western blot)
Protocol: as §2, §3

PKLR mRNA = PKLR mRNA in stable miR-130a expressing cells (RT-qPCR)
Protocol: (§4) Briefly, 2 μg of total RNA was reverse transcribed into cDNA using random primers and High Capacity cDNA Reverse Transcription kit (Applied Biosystem) at 37° C. for 120 minutes. The cDNA product was then diluted 100 times for real-time PCR analysis using Power SYBR Green PCR master mix (Applied Biosystem), and the default condition in a 20 μl reaction volume by Applied Biosystems 7500 Real-Time PCR System. Data were analyzed by relative quantification methods (AACt methods) using 7500 software V2.0.1.
as §3

GCK mRNA = GCK mRNA in stable miR-130a expressing cells (RT-qPCR)
Protocol: as §4, §3

PPARγ = PPARγ protein in stable miR-130a expressing cells (Western blot)
Text: as §1, §2, §3

G6Pase mRNA = G6Pase mRNA in stable miR-130a expressing HepG2 cells (Northern blot)
Protocol: (§5) HBV core particle-associated DNA, total cellular cytoplasmic RNA, and microRNA were analyzed by Northern blot as described previously. Chua, P. K., et al. Journal of virology 84, 2340-2351 (2010), Le Pogam, S., et al., Journal of virology 79, 1871-1887 (2005).
as §3

HNF4 = HNF4 protein in stable miR-130a expressing HepG2 cell lines (Western blot)
Protocol: as §2, §3

PPARγ mRNA = PPARγ mRNA in stable miR-130a expressing cell lines (Northern blot, RT-qPCR); settings: stable miR-130a expressing HepG2 cell lines
Protocol: as §4, §5, §3

[2] = test system: 3′ UTR of PGC1α (NM_013261); test: luciferase reporter cotransfection assay, 3′ UTR of PGC1α; settings: for luciferase activity, reporter with 3′ UTR of PGC1α: reporter cotransfection assay
Text: (§6) Assay for 3′ UTR or enhancer/promoter was as described previously. Chen, H. L., et al., PloS one 7, e34116 (2012).

PGC1α mRNA = PGC1α mRNA in stable miR-130a expressing cell lines (Northern blot, RT-qPCR); settings: stable miR-130a expressing HepG2 cell lines
Protocol: as §4, §5, §3

[3] = test system: 3′ UTR of PPARγ (NM_005037); test: luciferase reporter cotransfection assay, 3′ UTR of PPARγ
Text: as §6

PEPCK = PEPCK protein in miR-130a expressing hepatocytes (Western blot)
Text: as §1, §2, §3

adiponectin [4] = test: secreted adiponectin ELISA, miR-130a expressing cell lines
Protocol: The concentration of secreted adiponectin was measured by ELISA (Biovision). ELISA of HBsAg and HBeAg was from General Biologicals Co., Taiwan.
as §3

G6Pase = G6Pase protein in miR-130a expressing hepatocytes (Western blot)
Text: as §1, §2, §3

3′ UTR of PGC1α = test: compensatory mutagenesis luciferase cotransfection assay, PGC1α 3′UTR
Protocol: as §6
To distinguish between a direct and an indirect mechanism of miR-130a on reducing PGC1α mRNA, a reporter assay was performed using 3′UTR from either PPARγ or PGC1α. […] Next, compensatory mutations were introduced into the seed sequences of miR-130a and its evolutionarily conserved target site of PGC1α (FIG. 10). […] In a dose-dependent manner, miR-130a could reduce, while LNA-miR-130a could increase, the luciferase activity of a reporter containing the 3′UTR of PGC1α (FIG. 11).

PEPCK mRNA = PEPCK mRNA in stable miR-130a expressing HepG2 cells (Northern blot)
Protocol: as §5, §3

pyruvate kinase (PKLR) = pyruvate kinase (PKLR) protein in stable miR-130a expressing cells (Western blot); settings: stable miR-130a expressing Huh? cells
Text: as §1, §2, §3

glucokinase (GCK) = glucokinase (GCK) protein in stable miR-130a expressing HepG2 cells (Western blot)
Text: as §1, §2, §3

PPARα = PPARα protein in stable miR-130a expressing HepG2 cell lines (Western blot)
Protocol: as §2, §3

SP1 = SP1 protein in stable miR-130a expressing HepG2 cell lines (Western blot)
Protocol: as §2, §3

PGC1α = PGC1α protein in stable miR-130a expressing cells (Western blot)
Text: as §1, §2, §3

## O=C(Nc1ccccc1)c1cc([N+](=O)[O-])ccc1Cl [GW9662]
HepG2 cells; HepG2 cells, irrespective of HBV-producing status
  glucose production: further increased; also recorded: increase
miR-130a
  expression of miR-130a: not

## miR-130a: human microRNA comprising CAGUGCAAUGUUAAAAGGGCAU (SEQ ID NO:1); expressed from pSuper-miR-130a in stable cell lines
Adiponectin [1]
  adiponectin protein: reduction
CEBPb
  protein level of CEBPb: No appreciable difference
PKLR mRNA
  PKLR specific mRNA level: increased
GCK mRNA
  GCK specific mRNA level: increased
PPARγ
  PPARγ protein: reduction
G6Pase mRNA
  G6Pase mRNA expression: reductions; also recorded: reduced
HNF4
  protein level of HNF4: No appreciable difference
PPARγ mRNA
  PPARγ mRNA: reduction
[2]; dose response, co-transfection
  PGC1α 3′UTR luciferase reporter activity with increasing amounts: reduce; also recorded: decreasing reporter activity in a dose response manner
[2]
  luciferase activity, reporter with 3′ UTR of PGC1α: functional interaction
[2]; listed as MiR-130a
  luciferase activity, reporter with 3′ UTR of PGC1α: significantly reduced
PGC1α mRNA
  PGC1α mRNA: reduction
[3]
  luciferase activity, reporter with 3′ UTR of PPARγ: functional interaction
[3]; listed as MiR-130a
  luciferase activity, reporter with 3′ UTR of PPARγ: significantly reduced
PEPCK
  PEPCK protein expression: reductions; also recorded: Reduced
Adiponectin [4]
  secreted adiponectin: significantly reduced; also recorded: reduction
HepG2 cells; control vs miR-130a producing cells
  glucose level: No significant difference
G6Pase
  G6Pase protein expression: reductions; also recorded: Reduced
3′ UTR of PGC1α; p<0.05
  direct targeting of 3′ UTR of PGC1α by compensatory mutagenesis: directly target
PEPCK mRNA
  PEPCK mRNA expression: reductions; also recorded: reduced
Pyruvate kinase (PKLR)
  pyruvate kinase (PKLR) protein level: not reduced but increased; also recorded: increased level
Glucokinase (GCK)
  glucokinase (GCK) protein level: not reduced but increased; also recorded: increased level
PPARα
  protein level of PPARα: No appreciable difference
SP1
  protein level of SP1: No appreciable difference
PGC1α
  PGC1α protein: reduction

## mutant miR-130a: miR-130a with compensatory mutations in the seed sequence, SEQ ID NO: 69 (CUGAGCAAUGUUAAAAGGGCAU; listed as RNA, chemistry not given here) [reference compound]
3′ UTR of PGC1α; combination of mutant miR-130a and mutant PGC1α, cotransfection
  luciferase activity, mutant PGC1α 3′UTR target site: restore the inhibitory effect
